# PMC9679702, “BI 456906: Discovery and preclinical pharmacology of a novel GCGR/GLP-1R dual agonist with robust anti-obesity efficacy” (Molecular Metabolism, 2022)
# Assays:
# [1] = target: human glucagon-like peptide-1 receptor (human) (UniProt P43220)
# [2] = target: endogenous mouse GLP-1R (mouse (endogenous in MIN6)) (UniProt O35659)
# [3] = target: human glucagon receptor (human) (UniProt P47871)
# [4] = target: human glucagon-like peptide-1 receptor (human) (UniProt P43220); remark: listed apart in the source
# [5] = target: human glucagon receptor (human) (UniProt P47871); remark: listed apart in the source
# [6] = Energy expenditure study in diet-induced obese mice (indirect calorimetry, telemetry); type: in vivo
# Procedure: Male C57BL/6J mice were obtained from Charles River Laboratories (Sulzfeld, Germany) at age 6–7 weeks. Animals were housed in groups of five in individually ventilated cages with a 12 h light/dark cycle (06:00–18:00) and were acclimatized for 1 week with ad libitum feeding. Animals were then fed a 45% HFD for 18 or 30 weeks, before randomization to groups with similar average bodyweight at Day −1. Animals were dosed QD with SC vehicle (25 mM phosphate-buffered saline) or BI 456906 (5, 10, or 20 nmol/kg) for 9 days, with energy metabolism, activity, and core body temperature measured each day. On Day 10, mice were sacrificed by cervical dislocation after a final bleeding by puncture of the retrobulbar venous plexus.
# Energy metabolism was measured by indirect calorimetry. […] The mass flow of air through the respiratory cages and the concentrations of O2 and CO2 in inspired and expired air were measured every 10 min. […] Energy expenditure was analyzed by ANCOVA (see 2.16) for animals kept in single housing (dose groups 5 and 10 nmol/kg), applying statistical analysis using a general linear model framework including bodyweight as a covariate. […] Therefore, the regression-based ANCOVA was not calculated. Core body temperature and activity were measured by sensors (model 10TA10TA-F10; Data Sciences International, New Brighton, MA, USA) implanted in the peritoneal cavities. […]
# Human GCGR [7] = target: T1, Human GCGR (Homo sapiens, UniProt P47871); experiment: cAMP stimulation in CHO-K1 cells expressing human GCGR (AlphaScreen); type: cell-based; conditions: read-out: functional potency (EC50) in CHO-K1 cells, GCGR
# T1 sequence (P47871 26-477): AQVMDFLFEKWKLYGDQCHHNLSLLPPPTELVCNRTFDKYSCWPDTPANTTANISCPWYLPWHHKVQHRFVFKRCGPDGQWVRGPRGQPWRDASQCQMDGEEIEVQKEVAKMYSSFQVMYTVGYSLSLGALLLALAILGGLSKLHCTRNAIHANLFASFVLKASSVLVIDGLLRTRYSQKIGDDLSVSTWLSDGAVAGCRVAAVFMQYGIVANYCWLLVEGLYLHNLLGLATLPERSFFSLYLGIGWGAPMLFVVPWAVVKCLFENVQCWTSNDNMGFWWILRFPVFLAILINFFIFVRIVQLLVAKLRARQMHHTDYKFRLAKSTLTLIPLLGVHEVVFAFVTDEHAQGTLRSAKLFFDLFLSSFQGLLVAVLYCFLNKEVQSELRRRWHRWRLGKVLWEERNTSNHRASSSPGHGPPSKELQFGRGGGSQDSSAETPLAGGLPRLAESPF
# endogenous mouse GLP-1R = target: T2, endogenous mouse GLP-1R (Mus musculus, UniProt O35659); experiment: cAMP stimulation in mouse insulinoma MIN6 cells; type: cell-based
# T2 construct: The EC50 for the endogenous mouse GLP-1R was assessed in the insulinoma cell line MIN6; endogenous in cells; host or cells: MIN6 mouse insulinoma cells
# T2 sequence (O35659 22-463): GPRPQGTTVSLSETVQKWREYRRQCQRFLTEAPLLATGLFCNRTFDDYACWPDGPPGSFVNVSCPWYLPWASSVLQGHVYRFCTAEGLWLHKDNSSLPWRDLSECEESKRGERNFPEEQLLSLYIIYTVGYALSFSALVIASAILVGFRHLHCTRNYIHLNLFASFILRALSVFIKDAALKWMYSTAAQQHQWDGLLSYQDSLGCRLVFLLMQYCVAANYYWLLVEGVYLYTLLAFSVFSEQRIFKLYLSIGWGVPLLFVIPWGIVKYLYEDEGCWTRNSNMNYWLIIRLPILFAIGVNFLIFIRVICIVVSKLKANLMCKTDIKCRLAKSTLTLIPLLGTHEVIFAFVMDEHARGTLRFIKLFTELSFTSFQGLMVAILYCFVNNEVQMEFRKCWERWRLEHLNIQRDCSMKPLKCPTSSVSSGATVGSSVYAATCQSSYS
# Human GLP-1R [8] = target: T3, Human GLP-1R (Homo sapiens, UniProt P43220); experiment: CRE-induced luciferase activity, HEK293 CRE-luc2P cells, human GLP-1R, in plasma; type: cell-based; conditions: n = 3
# T3 sequence (P43220 24-463): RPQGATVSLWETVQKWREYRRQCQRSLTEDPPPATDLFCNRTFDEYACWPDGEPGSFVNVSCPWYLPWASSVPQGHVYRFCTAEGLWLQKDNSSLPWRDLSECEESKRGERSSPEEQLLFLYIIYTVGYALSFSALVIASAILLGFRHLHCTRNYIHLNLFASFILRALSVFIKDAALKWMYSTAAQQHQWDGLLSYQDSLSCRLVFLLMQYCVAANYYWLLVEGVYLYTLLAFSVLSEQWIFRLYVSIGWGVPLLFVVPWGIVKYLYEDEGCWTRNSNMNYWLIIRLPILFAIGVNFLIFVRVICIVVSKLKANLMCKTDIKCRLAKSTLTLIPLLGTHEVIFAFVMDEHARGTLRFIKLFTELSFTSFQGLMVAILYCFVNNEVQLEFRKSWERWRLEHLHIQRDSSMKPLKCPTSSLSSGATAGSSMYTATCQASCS
# Human GLP-1R [9] = target: T3, Human GLP-1R; experiment: Ex vivo bioactivity assay, HEK cells with human GLP-1R and CRE-luciferase, 100% mouse plasma
# [10] = Pharmacokinetics in Beagle dogs; type: in vivo; conditions: dog, SC injection, 10 nmol/kg, male Beagle dogs, N = 3, plasma, LC/MS/MS (Table S1)
# Procedure: (§1) For pharmacokinetic analysis, male C57BL/6NRj mice (Janvier, France) were given a single intravenous (IV) or subcutaneous (SC) BI 456906 dose (20 nmol/kg; N = 3 per route). In addition, male Beagle dogs received an IV or SC dose of 5 nmol/kg or 10 nmol/kg (N = 3) BI 456906, respectively. Plasma samples were generated at different time points post dosing and stored at −20 °C until further analysis. Plasma concentrations of BI 456906 were measured using a liquid chromatography/tandem mass spectrometry (LC/MS/MS) method with a calibration range of 0.5–1000 nM on a QTRAP 6500+ (Sciex, Framingham, MA, USA). Samples were pre-treated with ethanol for protein precipitation before the analysis.
# Human GCGR [11] = target: T1, Human GCGR; experiment: CRE-induced luciferase activity, HEK293 CRE-luc2P cells, human GCGR, in plasma; type: cell-based; conditions: for EC50: n = 3
# GLP-1R [12] = target: T4, GLP-1R (Mus musculus, UniProt O35659); experiment: Inhibition of acute food intake in lean NMRI mice; type: in vivo; conditions: single SC dose, 24 h food intake
# T4 construct: The acute potency of BI 456906 in engaging the GLP-1R was tested in lean mice after single dosing; tissue Janvier Labs; host or cells: whole animal: lean wild-type NMRI, C57BL6/J or B6J mice
# T4 sequence (O35659 22-463): T2 sequence (O35659 22-463)
# Procedure: The room temperature was controlled at 21 °C ± 1 °C, with 60% ± 20% humidity. […] Six-week-old male mice were randomized into treatment groups based on food intake and bodyweight (n = 8–10 per group). […] ED50 values were calculated in GraphPad Prism 9 using the nonlinear fit tool.
# Human GCGR [13] = target: T1, Human GCGR; experiment: Ex vivo bioactivity assay, HEK cells with human GCGR and CRE-luciferase, 100% mouse plasma; conditions: DIO mice, plasma at study end, maximal dose of 30 nmol/kg
# endogenous GCGR [14] = target: T5, endogenous GCGR (Mus musculus, UniProt Q61606); experiment: cAMP stimulation in primary mouse hepatocytes; type: cell-based; conditions: 0.1% BSA, Figure 1B, read-out: cAMP pEC50±SD, Mouse Hepatocytes (converted)
# T5 construct: endogenous in cells; host or cells: primary mouse hepatocytes
# T5 sequence (Q61606 27-485): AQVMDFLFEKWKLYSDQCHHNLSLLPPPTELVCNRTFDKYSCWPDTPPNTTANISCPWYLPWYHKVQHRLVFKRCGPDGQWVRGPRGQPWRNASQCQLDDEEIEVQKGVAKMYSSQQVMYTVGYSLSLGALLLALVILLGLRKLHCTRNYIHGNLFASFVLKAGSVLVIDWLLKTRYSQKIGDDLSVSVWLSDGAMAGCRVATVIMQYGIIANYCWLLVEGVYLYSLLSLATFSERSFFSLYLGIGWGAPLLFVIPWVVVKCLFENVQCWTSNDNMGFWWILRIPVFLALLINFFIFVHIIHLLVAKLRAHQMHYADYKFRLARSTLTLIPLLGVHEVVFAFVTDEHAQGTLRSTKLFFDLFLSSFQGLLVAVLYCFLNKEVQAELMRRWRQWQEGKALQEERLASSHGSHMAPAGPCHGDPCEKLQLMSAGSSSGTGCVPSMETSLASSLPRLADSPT
# GLP-1R [15] = target: T4, GLP-1R; experiment: Intraperitoneal glucose tolerance test in lean mice, single dosing; type: in vivo; conditions: read-out: ED50 ipGTT
# Procedure: Pre-treatment blood glucose was measured at −5 h. […] Baseline blood glucose was measured at −1 h, and then an intraperitoneal bolus of 2 g/kg glucose was applied at 0 h. Blood glucose was measured at 0, 15, 30, 60, and 120 min, and compound exposure was measured at 140 min.
# (§2) ED50 values were calculated in GraphPad Prism 9 using the nonlinear fit tool.
# GCGR = target: T6, GCGR (Rattus norvegicus, UniProt P30082); experiment: Inhibition of glycogen synthesis in primary rat hepatocytes (14C-glucose incorporation); type: cell-based; conditions: 0.1% BSA, 22.5 mM glucose, 180 min, Figure 1B, read-out: GSi pIC50±SD, Rat Hepatocytes (converted)
# T6 construct: endogenous in cells; host or cells: primary rat hepatocytes
# T6 sequence (P30082 27-485): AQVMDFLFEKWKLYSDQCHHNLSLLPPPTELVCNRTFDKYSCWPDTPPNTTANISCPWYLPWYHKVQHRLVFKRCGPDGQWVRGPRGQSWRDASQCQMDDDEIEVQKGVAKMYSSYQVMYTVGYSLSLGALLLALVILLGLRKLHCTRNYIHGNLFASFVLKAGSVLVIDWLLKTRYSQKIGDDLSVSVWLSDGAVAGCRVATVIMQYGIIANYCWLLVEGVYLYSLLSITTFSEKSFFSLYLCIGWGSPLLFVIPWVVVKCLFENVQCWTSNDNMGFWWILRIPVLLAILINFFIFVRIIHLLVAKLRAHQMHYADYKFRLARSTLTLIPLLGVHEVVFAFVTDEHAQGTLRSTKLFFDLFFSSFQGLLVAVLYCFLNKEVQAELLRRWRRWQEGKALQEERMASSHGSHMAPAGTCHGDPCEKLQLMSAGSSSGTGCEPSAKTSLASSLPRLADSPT
# Pharmacokinetics in mice = type: in vivo
# Procedure: as §1
# endogenous GCGR [16] = target: T7, endogenous GCGR (Rattus norvegicus, UniProt P30082); experiment: cAMP stimulation in primary rat hepatocytes; type: cell-based; conditions: 0.1% BSA, Figure 1B, read-out: cAMP pEC50±SD, Rat Hepatocytes (converted)
# T7 construct: endogenous in cells; host or cells: primary rat hepatocytes
# T7 sequence (P30082 27-485): as above
# GLP-1R [17] = target: T4, GLP-1R; experiment: Oral glucose tolerance test in lean mice, single dosing; type: in vivo
# Procedure: Mice were then fasted from −10 h, before bolus ingestion of glucose (2 g/kg) at 0 h. Blood glucose was measured at 0, 15, 30, 60, and 120 min, and compound exposure was measured at 120 min. In both experiments, glucose was measured in whole blood using a commercially available glucometer (GlucoSmart Swing) with test strips (MSP bodmann GmbH, Bobingen, Germany). Data are represented as mean ± standard error of mean (SEM) and were compared using GraphPad Prism 9 using two-way ANOVA, followed by Dunnett’s method for multiple comparisons versus vehicle. Significant differences were identified at p < 0.05.
# as §2
# GLP-1R [18] = target: T4, GLP-1R; experiment: Acute gastric emptying (acetaminophen) in lean mice; type: in vivo
# Procedure: After 60 min, ex vivo assays assessing acetaminophen, blood glucose, and terminal exposure were carried out. Acetaminophen was measured using an automated analyzer (Cobas Integra 400; Roche, Rotkreuz, Switzerland). […] ED50 values were calculated in GraphPad Prism 9 using the nonlinear fit tool.
# Human GLP-1R [19] = target: T3, Human GLP-1R; experiment: cAMP stimulation in CHO-K1 cells expressing human GLP-1R (AlphaScreen); type: cell-based; conditions: read-out: functional potency (EC50) in CHO-K1 cells, GLP-1R
# endogenous GCGR [20] = target: T8, endogenous GCGR (Homo sapiens, UniProt P47871); experiment: cAMP stimulation in primary human hepatocytes; type: cell-based; conditions: 0.1% BSA, Figure 1B, read-out: cAMP pEC50±SD, Human Hepatocytes (converted)
# T8 construct: endogenous in cells; host or cells: primary human hepatocytes
# T8 sequence (P47871 26-477): as the sequence (P47871 26-477) above
# human glucagon-like peptide-1 receptor (human), sequence (P43220 24-463): as the sequence (P43220 24-463) above
# human glucagon receptor (human), sequence (P47871 26-477): as the sequence (P47871 26-477) above
molecule,measurement,setting,value
BI 456906 (peptide),"EC50 of cAMP generation (AlphaScreen cAMP assay), CHO-K1 cells expressing human GLP-1R, 0.1% BSA",[1],330 pM
same,"EC50 of cAMP generation, mouse insulinoma MIN6 cells (endogenous receptor)",[2],360 pM
same,"EC50 of cAMP generation (AlphaScreen cAMP assay), CHO-K1 cells expressing human GCGR, 0.1% BSA",[3],520 pM
same,"EC50 in the CRE-luciferase assay, HEK293 CRE-luc2P cells expressing recombinant GLP-1R, 100% human plasma",[4],1000 pM
same,"EC50 in the CRE-luciferase assay, HEK293 CRE-luc2P cells expressing recombinant GLP-1R, 100% mouse plasma",[4],1600 pM
same,"EC50 in the CRE-luciferase assay, HEK293 CRE-luc2P cells expressing recombinant GCGR, 0.5% human plasma",[5],290 pM
same,"EC50 in the CRE-luciferase assay, HEK293 CRE-luc2P cells expressing recombinant GCGR, 0.5% mouse plasma",[5],170 pM
same,"EC50 in the CRE-luciferase assay, HEK293 CRE-luc2P cells expressing recombinant GCGR, 100% human plasma",[5],8300 pM
same,"EC50 in the CRE-luciferase assay, HEK293 CRE-luc2P cells expressing recombinant GCGR, 100% mouse plasma",[5],16000 pM
CC[C@H](C)[C@H](NC(=O)[C@H](Cc1ccccc1)NC(=O)[C@H](CC(=O)O)NC(=O)[C@H](CCCCN)NC(=O)[C@H](C)NC(=O)[C@H](C)NC(=O)[C@H](CCCNC(=N)N)NC(=O)[C@H](CCC(=O)O)NC(=O)[C@H](CC(=O)O)NC(=O)[C@H](CC(C)C)NC(=O)[C@H](Cc1ccc(O)cc1)NC(=O)[C@H](CCCCN)NC(=O)[C@H](CO)NC(=O)[C@H](Cc1ccc(O)cc1)NC(=O)[C@H](CC(=O)O)NC(=O)[C@H](CO)NC(=O)[C@@H](NC(=O)[C@H](Cc1ccccc1)NC(=O)[C@@H](NC(=O)CNC(=O)[C@H](CCC(N)=O)NC(=O)C1(NC(=O)[C@@H](N)Cc2c[nH]cn2)CCC1)[C@@H](C)O)[C@@H](C)O)C(=O)N[C@@H](CCCCNC(=O)CNC(=O)CNC(=O)[C@H](CO)NC(=O)CNC(=O)[C@H](CO)NC(=O)CNC(=O)CC[C@H](NC(=O)CCCCCCCCCCCCCCCCC(=O)O)C(=O)O)C(=O)N[C@@H](Cc1c[nH]c2ccccc12)C(=O)N[C@@H](CC(C)C)C(=O)N[C@@H](CCC(=O)O)C(=O)N[C@@H](CO)C(=O)N[C@@H](C)C(N)=O [BI 456906],energy expenditure (in words),"[6]; DIO mice, 5, 10 or 20 nmol/kg SC QD for 9 days, indirect calorimetry",dose-dependent increase in energy expenditure
same,core body temperature and activity (in words),"[6]; DIO mice, therapeutic doses, implanted sensors",did not increase core body temperature or activity
same,EC50,Human GCGR [7],520 pM
same,EC50,endogenous mouse GLP-1R,360 pM
same,EC50,"Human GLP-1R [8]; Human GLP-1R HEK293 Cre-Luc EC50, Mouse Plasma 100%, 100% mouse plasma, 4 h 37 °C",1600 pM
same,EC50,"Human GLP-1R [8]; Human GLP-1R HEK293 Cre-Luc pEC50±SD, Human Plasma 0.5%, 0.5% human plasma",14.8 pM
same,EC50,"Human GLP-1R [8]; Human GLP-1R HEK293 Cre-Luc pEC50±SD, Human Plasma 100%, 100% human plasma",1000 pM
same,EC50,"Human GLP-1R [8]; Human GLP-1R HEK293 Cre-Luc pEC50±SD, Mouse Plasma 0.5%, 0.5% mouse plasma",7.59 pM
same,EC50,"Human GLP-1R [8]; Human GLP-1R HEK293 Cre-Luc pEC50±SD, Mouse Plasma 100%, 100% mouse plasma",1620 pM
same,EC50,Human GLP-1R [9],2400 pM
same,"ex vivo bioequivalence over EC50, GLP-1R","Human GLP-1R [9]; DIO mice, plasma at study end, maximal dose of 30 nmol/kg",less than 1000 fold
same,Tmax,[10],51 h
same,MRT,[10]; read-out: mean residence time,140 h
same,fold less potent at the GCGR in relation to endogenous glucagon,Human GCGR [11]; 0.5% human and mouse plasma,~6 fold
same,EC50,"Human GCGR [11]; Human GCGR HEK293 Cre-Luc EC50, Human Plasma 0.5%, 0.5% human plasma in KRBH, 4 h 37 °C",290 pM
same,EC50,"Human GCGR [11]; Human GCGR HEK293 Cre-Luc EC50, Human Plasma 100%, 100% human plasma, 4 h 37 °C",8300 pM
same,EC50,"Human GCGR [11]; Human GCGR HEK293 Cre-Luc EC50, Mouse Plasma 0.5%, 0.5% mouse plasma in KRBH, 4 h 37 °C",170 pM
same,EC50,"Human GCGR [11]; Human GCGR HEK293 Cre-Luc EC50, Mouse Plasma 100%, 100% mouse plasma, 4 h 37 °C",16000 pM
same,EC50,"Human GCGR [11]; Human GCGR HEK293 Cre-Luc pEC50±SD, Human Plasma 0.5%, 0.5% human plasma",288 pM
same,EC50,"Human GCGR [11]; Human GCGR HEK293 Cre-Luc pEC50±SD, Human Plasma 100%, 100% human plasma",8320 pM
same,EC50,"Human GCGR [11]; Human GCGR HEK293 Cre-Luc pEC50±SD, Mouse Plasma 0.5%, 0.5% mouse plasma",170 pM
same,EC50,"Human GCGR [11]; Human GCGR HEK293 Cre-Luc pEC50±SD, Mouse Plasma 100%, 100% mouse plasma",15500 pM
same,ED50,GLP-1R [12],0.09 µmol/kg
same,"ex vivo bioequivalence over EC50, GCGR",Human GCGR [13],< 100 fold
same,EC50,endogenous GCGR [14],407000 pM
same,ED50,GLP-1R [15],0.004 µmol/kg
same,IC50,GCGR,437 pM
same,terminal half-life in mouse plasma compared with semaglutide (in words),Pharmacokinetics in mice; mouse pharmacokinetic profiles (Table S1),longer terminal half-life
same,Tmax,"Pharmacokinetics in mice; mouse, SC injection, 20 nmol/kg single dose, male C57BL/6NRj mice, N = 3, plasma, LC/MS/MS (Table S1)",7 h
same,MRT,"Pharmacokinetics in mice; mouse, SC injection, 20 nmol/kg single dose, male C57BL/6NRj mice, N = 3, plasma, LC/MS/MS (Table S1), read-out: mean residence time",44 h
same,EC50,endogenous GCGR [16],18600 pM
same,ED50,GLP-1R [17],0.0021 µmol/kg
same,ED50,"GLP-1R [18]; mouse, sc",0.041 µmol/kg
same,"inhibition of gastric emptying, effective doses (in words)","GLP-1R [18]; reduced acetaminophen excursion, single SC dose, lean mice",effective only at higher doses of 100 and 300 nmol/kg
same,EC50,Human GLP-1R [19],330 pM
same,EC50,endogenous GCGR [20],537000 pM
glucagon-like peptide-1,"EC50 of cAMP generation, mouse insulinoma MIN6 cells (endogenous receptor)",[2],60 pM
